Key:
[1] = target: T1, Limax xenopsin (Ambigolimax valentianus, UniProt A0A455SJK2); assay: UV-VIS absorption spectroscopy of reconstituted purified pigment; type: binding; details: chromophore added to expressing cells; covalent (retinylidene Schiff base to conserved Lys, general for opsins); 1% dodecyl maltoside extraction; 4 °C
T1 construct: wild-type xenopsin in pMT vector, C-terminal rho 1D4 tag (ETSQVAPA; tag stated, 1D4 purification), HEK293S cells, extracted in dodecyl maltoside
T1 sequence (A0A455SJK2 1-421): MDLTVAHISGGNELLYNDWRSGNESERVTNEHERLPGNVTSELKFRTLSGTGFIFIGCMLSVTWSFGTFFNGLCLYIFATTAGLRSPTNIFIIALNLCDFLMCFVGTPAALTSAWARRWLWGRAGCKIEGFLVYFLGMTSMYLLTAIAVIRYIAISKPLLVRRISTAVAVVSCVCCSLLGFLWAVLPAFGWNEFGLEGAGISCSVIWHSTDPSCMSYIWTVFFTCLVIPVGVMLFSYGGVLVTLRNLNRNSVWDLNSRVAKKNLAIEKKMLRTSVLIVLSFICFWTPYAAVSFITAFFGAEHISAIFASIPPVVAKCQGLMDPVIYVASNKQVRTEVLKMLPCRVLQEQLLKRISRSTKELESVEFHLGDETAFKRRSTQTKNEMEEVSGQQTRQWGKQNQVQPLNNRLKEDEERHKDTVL

[2] = target: T2, Limax Opn5A (Ambigolimax valentianus, UniProt A0A455SGG5); assay: as above; type: binding; details: chromophore added to expressing cells; covalent (retinylidene Schiff base to conserved Lys, general for opsins); 1% dodecyl maltoside extraction; 4 °C; low expression, impurities, spectrum fitted with
T2 construct: wild-type Opn5A in pMT vector, C-terminal rho 1D4 tag (ETSQVAPA; tag stated, 1D4 purification), HEK293S cells, extracted in dodecyl maltoside
T2 sequence (A0A455SGG5 1-425): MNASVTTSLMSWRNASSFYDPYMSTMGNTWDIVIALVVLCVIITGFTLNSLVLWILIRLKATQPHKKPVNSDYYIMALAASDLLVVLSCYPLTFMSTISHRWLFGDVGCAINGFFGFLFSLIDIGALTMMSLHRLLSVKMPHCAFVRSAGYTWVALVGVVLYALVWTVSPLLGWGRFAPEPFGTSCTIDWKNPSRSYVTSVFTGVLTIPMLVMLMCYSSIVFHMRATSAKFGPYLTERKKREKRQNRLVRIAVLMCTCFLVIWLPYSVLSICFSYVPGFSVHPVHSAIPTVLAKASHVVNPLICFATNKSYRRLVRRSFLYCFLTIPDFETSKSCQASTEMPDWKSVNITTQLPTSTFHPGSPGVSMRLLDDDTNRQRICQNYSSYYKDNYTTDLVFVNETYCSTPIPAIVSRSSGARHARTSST

CC1=C(/C=C/C(C)=C/C=C\C(C)=C\C=O)C(C)(C)CCC1 [11-cis retinal]
UV-VIS absorption spectroscopy of reconstituted purified pigment [1]: After the addition of the 11-cis retinal, opsin-based pigments were extracted
UV-VIS absorption spectroscopy of reconstituted purified pigment [2]: After the addition of the 11-cis retinal, opsin-based pigments were extracted
